Data as given in article PMC3795654, “Combinatorial Optimization of Cystine-Knot Peptides towards High-Affinity Inhibitors of Human Matriptase-1” (PLoS ONE, 2013).
Where two headings read alike, the source gives them in different places. Where a SMILES comes first, the peptide text is derived from it. Bridges are numbered along the chain shown (N, C = ends).

Tests used:
Human matriptase-1 = molecular target: T1, Human matriptase-1 (Homo sapiens, UniProt Q9Y5Y6); experiment: Matriptase-1 inhibition assay (Ki / Ki app); format: biochemical
T1 construct: made in house
T1 sequence (Q9Y5Y6 615-855 limits assumed): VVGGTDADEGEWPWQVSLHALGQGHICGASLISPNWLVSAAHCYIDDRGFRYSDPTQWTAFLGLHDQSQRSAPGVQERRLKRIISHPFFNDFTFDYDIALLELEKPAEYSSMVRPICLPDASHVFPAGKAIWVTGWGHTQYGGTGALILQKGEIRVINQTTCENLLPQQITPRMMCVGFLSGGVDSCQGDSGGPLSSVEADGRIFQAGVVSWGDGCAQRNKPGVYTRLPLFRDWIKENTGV
Procedure: Human matriptase-1 was produced recombinantly, autocatalytically activated and purified as previously reported [35], [49], [51], [60].
Measurements were carried out in triplicate using a Tecan Genios ELISA reader.
(§1) Apparent inhibition constants (Ki ^app) were calculated by fitting the Morrison equation (1) for tight-binding inhibitors to the relative reaction velocity using non-linear regression (Marquardt-Levenberg algorithm, Sigma Plot 11) [63].
(§2) Substrate-independent inhibition constants Ki were calculated from Ki ^app and Km of the enzyme according to (2).

[1] = molecular target: T2, Bovine pancreatic trypsin (Bos taurus, UniProt P00760); experiment: Trypsin inhibition assay (substrate-independent Ki); format: biochemical; conditions: substrate-independent Ki from Ki app (Morrison equation) and Km; 250 µM substrate; preincubation 30 min RT; read over 30 min; triplicate
T2 construct: purchased Sigma-Aldrich
T2 sequence (P00760 24-246): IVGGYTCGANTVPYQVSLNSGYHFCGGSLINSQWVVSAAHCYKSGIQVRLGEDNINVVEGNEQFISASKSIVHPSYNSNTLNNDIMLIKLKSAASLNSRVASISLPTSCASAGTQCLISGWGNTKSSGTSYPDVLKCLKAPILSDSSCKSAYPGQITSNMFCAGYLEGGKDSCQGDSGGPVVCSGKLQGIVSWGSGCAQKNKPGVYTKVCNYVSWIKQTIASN
Procedure: Bovine pancreatic trypsin, thrombin and uPA were purchased from Sigma-Aldrich and Hepsin from R&D Systems.
Measurements were carried out in triplicate using a Tecan Genios ELISA reader. The normalized residual proteolytic activity (v/v0) of proteases was determined using substrates Boc-QAR-pNA (250 µM, (pNA stands for para-nitro aniline), Boc-QAR-AMC (250 µM, AMC stands for amino-methyl coumarin) or Spectrozym tPA (250 µM, American Diagnostica, CH3SO2-D-CHT-Gly-Arg-pNA AcOH). Product formation was monitored after preincubation (30 min, RT) with inhibitor at different concentrations over 30 min by measuring the absorbance at 405 nm for pNA substrates or the fluorescence emission for AMC substrates (ex. 360 nm, em. 465 nm), respectively. Selectivity data were carried out in duplicates with final protease concentrations of uPA and thrombin of 5 nM. In case of hepsin 50 mM Tris/HCl pH 9.0 was used as assay buffer.
as §1, §2

[2] = tested on: uPA activation by matriptase-1 on the surface of PC-3 cells; experiment: Cell inhibition assay: uPA activation by matriptase-1 on the surface of PC-3 cells; format: cell-based, human; conditions: control, concentration of 10 µM
Procedure: Human prostate cancer cells (PC-3, Merck KGaA) were cultured in DMEM medium with 10% FCS at 37°C and 5% CO2, washed with cation-free PBS and harvested by scraping. 1×10^5 cells were incubated in presence of 250 µM Bz-β-Ala-Gly-Arg-pNA·AcOH (American Diagnostica), which is a specific […] of urokinase, and the inhibitor of interest in defined dilutions overnight. Product formation was monitored at 405 nm before and after incubation in a microplate reader. IC50 was calculated by non-linear regression using SigmaPlot 11.
Urokinase-type plasminogen activator (uPA) causes the degradation of the extracellular matrix and plays a critical role in tumor invasion and metastasis, [73]. It was shown that activation of receptor-bound pro-uPA is affected by matriptase-1, which results in a decreased ability of uPAexpressing tumor cells to invade an extracellular matrix layer upon inhibition of membrane-bound matriptase-1 [72].
For the indirect determination of the IC50 of SOTI Var. 1 and MCoTI Var. 4 on the surface of these cancer cells, the turnover of an uPA substrate was monitored. Pro-uPA is activated through non-inhibited matriptase-1 and substrate turnover was measured and compared to the previously reported small molecule inhibitor S1 of matriptase-1 (Figure 4). In this experimental setting, the MCoTI-based inhibitor Var. […] 4 in this assay.
Figure 4 Inhibition assay of uPA activation by matriptase-1 on the surface of PC-3 cells. Depicted is the logarithmic inhibitor concentration against the absorption at 405 TEXT PRINTED IN THE PICTURE: MCoTI Var.

[3] = substrate-independent Ki from Ki app (Morrison equation) and Km, 250 µM substrate, preincubation 30 min RT, read over 30 min, triplicate, read-out: Ki (Matriptase-1)
[4] = apparent inhibition constant (Morrison equation), MCoTI variants isolated from M. cochinchinensis seeds, oMCoTI-II synthetic, read-out: Kiapp towards matriptase-1

CC[C@H](C)[C@H](N)C(=O)NCC(=O)N[C@H](C(=O)N[C@H]1CSSC[C@@H]2NC(=O)[C@H](C)NC(=O)CNC(=O)[C@@H]3CCCN3C(=O)[C@@H]3CSSC[C@@H](C(=O)NCC(N)=O)NC(=O)[C@H](Cc4ccc(O)cc4)NC(=O)CNC(=O)[C@H](CC(N)=O)NC(=O)CNC(=O)[C@H](CCCNC(=N)N)NC(=O)[C@H](CSSC[C@H](NC(=O)[C@H](C)NC(=O)[C@H](CCCNC(=N)N)NC(=O)[C@H](CC(C)C)NC(=O)[C@H](CC(C)C)NC(=O)[C@H](CCCCN)NC(=O)[C@@H]4CCCN4C1=O)C(=O)N[C@@H](CCCNC(=N)N)C(=O)N[C@@H](CCCNC(=N)N)C(=O)N[C@@H](CC(=O)O)C(=O)N[C@@H](CO)C(=O)N[C@@H](CC(=O)O)C(=O)N3)NC(=O)[C@H]([C@@H](C)CC)NC2=O)C(C)C [MCoTI Var. 1] (H-IGVCPKLLRACRRDSDCPGACICRGNGYCG-NH2; disulfide 4-21, 11-23, 17-29)
Ki (Human matriptase-1; [3]): 0.0044 ± 0.0006 µM | Ki [1]: 0.0317 ± 0.0043 µM

CC[C@H](C)[C@@H]1NC(=O)[C@@H]2CSSC[C@H](NC(=O)[C@H](CCCNC(=N)N)NC(=O)[C@H](CCCNC(=N)N)NC(=O)[C@@H](N)CC(N)=O)C(=O)N3CCC[C@H]3C(=O)N[C@@H](CCCCN)C(=O)N[C@@H](C(C)C)C(=O)N[C@@H](CC(C)C)C(=O)N[C@@H](CCCCN)C(=O)N[C@@H](C)C(=O)N[C@H]3CSSC[C@H](NC1=O)C(=O)N[C@@H](CCCNC(=N)N)C(=O)NCC(=O)N[C@@H](CC(N)=O)C(=O)NCC(=O)N[C@@H](Cc1ccc(O)cc1)C(=O)N[C@H](C(=O)NCC(N)=O)CSSC[C@H](NC(=O)[C@H](CC(=O)O)NC(=O)[C@H](CO)NC(=O)[C@H](CC(=O)O)NC(=O)[C@H](CCCNC(=N)N)NC(=O)[C@H](CCCNC(=N)N)NC3=O)C(=O)N1CCC[C@H]1C(=O)NCC(=O)N[C@@H](C)C(=O)N2 [MCoTI Var. 2]
Ki (Human matriptase-1; [3]): 0.0033 ± 0.0004 µM | Ki [1]: 0.0192 ± 0.0028 µM

CC[C@H](C)[C@@H]1NC(=O)[C@@H]2CSSC[C@@H]3NC(=O)[C@H](C(C)C)NC(=O)CNC(=O)CNC(=O)C[C@@H](C(=O)O)NC(=O)[C@H](CO)NC(=O)CNC(=O)[C@H](CO)NC(=O)CNC(=O)[C@@H]4CSSC[C@H](NC(=O)[C@H](CC(=O)O)NC(=O)[C@H](CO)NC(=O)[C@H](CC(=O)O)NC(=O)[C@H](CCCNC(=N)N)NC(=O)[C@H](CCCNC(=N)N)NC(=O)[C@H](CSSC[C@H](NC1=O)C(=O)N[C@@H](CCCNC(=N)N)C(=O)NCC(=O)N[C@@H](CC(N)=O)C(=O)NCC(=O)N[C@@H](Cc1ccc(O)cc1)C(=O)N4)NC(=O)[C@H](CCCCN)NC(=O)[C@H](CCCCN)NC(=O)[C@H](CC(C)C)NC(=O)[C@H]([C@@H](C)CC)NC(=O)[C@H](CCCCN)NC(=O)[C@@H]1CCCN1C3=O)C(=O)N1CCC[C@H]1C(=O)NCC(=O)N[C@@H](C)C(=O)N2 [MCoTI-II (ß-asp), reference compound] (GGVCPKILKKCRRDSDCPGACICRGNGYCGSGSD-OH; disulfide 4-21, 11-23, 17-29; lactam N-34)
Ki (Human matriptase-1; [4]): 0.388 ± 0.032 µM

CC[C@H](C)[C@@H]1NC(=O)[C@H](C)NC(=O)CNC(=O)[C@H](CO)NC(=O)[C@@H]2CCCN2C(=O)[C@H](CO)NC(=O)[C@@H](NC(=O)[C@H](CCCCN)NC(=O)[C@H](CC(=O)O)NC(=O)[C@@H](N)CCC(=O)O)CSSC[C@@H]2NC(=O)[C@@H]3CSSC[C@@H](C(=O)N[C@@H](CCC(N)=O)C(=O)O)NC(=O)[C@H](CCCNC(=N)N)NC(=O)[C@H](Cc4c[nH]c5ccccc45)NC(=O)[C@H](CO)NC(=O)[C@H](CCCNC(=N)N)NC(=O)[C@H](C)NC(=O)[C@H](CCCNC(=N)N)NC(=O)[C@H](CCCNC(=N)N)NC(=O)[C@H](CC(N)=O)NC(=O)[C@H](CC(C)C)NC(=O)[C@H](C(C)C)NC(=O)[C@H](CSSC[C@H](NC1=O)C(=O)N[C@@H](CO)C(=O)NCC(=O)N[C@@H](Cc1ccccc1)C(=O)NCC(=O)N1CCC[C@H]1C(=O)N1CCC[C@H]1C(=O)N[C@@H](CCC(=O)O)C(=O)N[C@@H](CCC(N)=O)C(=O)N3)NC(=O)[C@H](C)NC(=O)CNC(=O)[C@H](CO)NC2=O [SOTI Var. 1] (H-EDKCSPSGAICSGFGPPEQCCSGACVLNRRARSWRCQ-OH; disulfide 4-21, 11-25, 20-36)
Ki (Human matriptase-1; [3]): 0.0289 ± 0.0035 µM | Ki [1]: > 1 µM | Ki (Trypsin) [1]: total loss of trypsin inhibition

CC[C@H](C)[C@@H]1NC(=O)[C@H](C)NC(=O)CNC(=O)[C@H](CO)NC(=O)[C@@H]2CCCN2C(=O)[C@H](CO)NC(=O)[C@@H](NC(=O)[C@H](CCCCN)NC(=O)[C@H](CC(=O)O)NC(=O)[C@@H](N)CCC(=O)O)CSSC[C@@H]2NC(=O)[C@@H]3CSSC[C@@H](C(=O)N[C@@H](CCC(N)=O)C(=O)O)NC(=O)[C@H](C(C)C)NC(=O)[C@H](Cc4ccccc4)NC(=O)[C@H]([C@@H](C)CC)NC(=O)[C@H](CCCNC(=N)N)NC(=O)[C@H](CC(C)C)NC(=O)[C@H]([C@@H](C)CC)NC(=O)[C@@H]4CCCN4C(=O)[C@H](Cc4c[nH]cn4)NC(=O)[C@@H]4CCCN4C(=O)[C@H](C(C)C)NC(=O)[C@H](CSSC[C@H](NC1=O)C(=O)N[C@@H](CO)C(=O)NCC(=O)N[C@@H](Cc1ccccc1)C(=O)NCC(=O)N1CCC[C@H]1C(=O)N1CCC[C@H]1C(=O)N[C@@H](CCC(=O)O)C(=O)N[C@@H](CCC(N)=O)C(=O)N3)NC(=O)[C@H](C)NC(=O)CNC(=O)[C@H](CO)NC2=O [SOTI-III wt, Spinacia oleracea trypsin inhibitor III, reference compound] (H-EDKCSPSGAICSGFGPPEQCCSGACVPHPILRIFVCQ-OH; disulfide 4-21, 11-25, 20-36)
Ki (Matriptase-1) (Human matriptase-1; substrate-independent Ki from Ki app (Morrison equation) and Km, 250 µM substrate, preincubation 30 min RT, read over 30 min, triplicate): did not display measurable inhibitory activity | Ki (Human matriptase-1; [3]): > 1 µM | inhibition of matriptase-1 or uPA in the PC-3 assay [2]: no inhibition | Ki [1]: 0.0606 ± 0.0084 µM

CC[C@H](C)[C@@H]1NC(=O)[C@@H]2CSSC[C@H](NC(=O)[C@@H](NC(=O)CNC(=O)[C@@H](N)CO)C(C)C)C(=O)N3CCC[C@H]3C(=O)N[C@@H](CCCCN)C(=O)N[C@@H]([C@@H](C)CC)C(=O)N[C@@H](CC(C)C)C(=O)N[C@@H](CCCCN)C(=O)N[C@@H](CCCCN)C(=O)N[C@H]3CSSC[C@H](NC1=O)C(=O)N[C@@H](CCCNC(=N)N)C(=O)NCC(=O)N[C@@H](CC(N)=O)C(=O)NCC(=O)N[C@@H](Cc1ccc(O)cc1)C(=O)N[C@H](C(=O)NCC(N)=O)CSSC[C@H](NC(=O)[C@H](CC(=O)O)NC(=O)[C@H](CO)NC(=O)[C@H](CC(=O)O)NC(=O)[C@H](CCCNC(=N)N)NC(=O)[C@H](CCCNC(=N)N)NC3=O)C(=O)N1CCC[C@H]1C(=O)NCC(=O)N[C@@H](C)C(=O)N2 [oMCoTI-II, reference compound] (H-SGVCPKILKKCRRDSDCPGACICRGNGYCG-NH2; disulfide 4-21, 11-23, 17-29)
Ki (Human matriptase-1; [4]): 0.276 ± 0.013 µM
